Residues, ends and D or L forms follow the SMILES beside them. *: point of attachment. Cbz = O=C(OCc1ccccc1)*

Experiment [1] relates to NF-κB. Nature of the experiment: EMSA of NF-κB DNA binding in nuclear extracts of treated amnion cells. Type of experiment: cell-based, human. The method, then:
(§1) Electro-mobility shift assay (EMSA) analysis of NF-κB DNA binding in nuclear protein extracts from (A) myometrial cells, (B) L+amnion cells, and (C) L− amnion cells treated with 15dPGJ2 or vehicle for 2 h+/−IL-1b stimulation (15 min). Consensus kB probe used to assess NF-κB DNA binding, and consensus Oct-1 probe used as control.
EMSA analysis of nuclear protein extracts from amnion cells treated with 15dPGJ2+/−GW9662 or vehicle for 2 h followed by IL-1β stimulation (15 min). Consensus kB probe used to assess NFκB DNA binding, consensus Oct-1 probe used as control.
(§2) EMSA analysis of nuclear protein extracts from (A) myometrial cells, and (B) amnion cells treated with PGA1 or vehicle for 2 h followed by IL-1b stimulation (15 min). Consensus κB probe used to assess NFκB DNA binding, consensus Oct-1 probe used as control. For supershift analysis, extracts were preincubated with antibodies against p50 or p65.
(§3) EMSA analysis of nuclear protein extracts from (A) L− amnion cells and (B) myometrial cells treated with vehicle, PGE2 or IL-1β. Consensus κB probe used.
(§4) Placentae were obtained from patients at term either at elective Caesarean section prior to labour (L−) or following spontaneous labour onset and vaginal delivery (L+). Amnion cells were prepared as described in Bennett et al., (1989). Briefly, the amnion was separated from the placenta, washed 3× in PBS, cut into strips, and incubated in 0.51 mM EDTA in PBS for 15 min. The strips were washed in PBS 2× and digested with 2.5 mg/ml dispase in serum-free DMEM for 35 min at 37° C. The amnion was then shaken vigorously in DMEM, 10% FCS to dissociate the cells, the remaining strips discarded, and the cell suspension pelleted at 175 g for 10 min and cultured in DMEM, 10% FCS (Sigma), 1% L-glutamine, 1% penicillin-streptomycin.
(§5) Nuclear and cytosolic protein extracts were obtained from cultured amnion cells as described by Schreiber et al (1989). For nuclear/cytosolic fractionation, confluent cell monolayers were scraped and lysed using a buffer containing 10 mM HEPES, 10 mM KCl, 0.1 mM EDTA, 0.1 mM EGTA, 2 mM DTT, 1% (v/v) NP-40 and complete protease inhibitor tablets (CPIs, Roche), diluted to manufacturer's instructions. Cell lysates were incubated on ice for 10 min and NP-40 added to a final concentration of 1% (v/v). Lysates were vortexed for 10 secs and centrifuged for 30 secs at 4° C., 12000 g. The supernatants were retained as the cytosolic protein extracts. The pellets were resuspended in buffer containing 10 mM HEPES, 10 mM KCl, 0.1 mM EDTA, 0.1 mM EGTA, 2 mM DTT, 400 mM NaCl, 1% NP-40 (v/v) and CPIs. Samples were shaken vigorously for 15 min in an ice bath. The nuclear protein extracts were obtained in the supernatant following a 5 min centrifugation at 4° C., 12000 g.
(§6) Sense and antisense strands (175 nmole/ml each) were incubated in annealing buffer (10 mM Tris-HCl pH7.5, 100 mM NaCl, 1 mM EDTA) for 10 min at 65° C., and allowed to cool at room temperature for 2 h. 3.5 pmole double-stranded oligonucleotides were end-labelled with 0.37 MBq ^32P(γATP) by incubating for 30 min at 37° C. with T4 polynucleotide kinase. Labelled oligonucleotides were recovered by centrifugation at […] for 2 min through MicroSpin G-25 or G-50 sephadex columns (Amersham Biosciences). […]
For orientation: Mobility shift assays separate free from complexed probe on a gel.

The test system of experiment [2] is NF-κB. Nature of the experiment: EMSA of NF-κB DNA binding in nuclear extracts of treated myometrial cells. Format: cell-based, human. To be noted: myometrial cells; for IL-1β-induced NF-κB DNA binding: IL-1β stimulation 15 min. The method, then:
as §1
Consensus κB probe used to assess NF-κB DNA binding, consensus Oct-1 probe used as control. For supershift analysis, extracts were preincubated with antibodies against p50 or p65.
EMSA analysis of nuclear protein extracts from myometrial cells treated with (A) WY-14643 or vehicle, and (B) high doses of troglitazone, WY-14643 or vehicle for 2 h followed by IL-1b stimulation (15 min). Consensus κB probe used to assess NFκB DNA binding, consensus Oct-1 and Sp-1 probes used as controls.
as §2
(§7) Analysis of nuclear protein extracts from myometrial cells treated with PGE2 or vehicle for 2 h+/−TNFα or IL-1b stimulation (15 min). (A) EMSA using consensus κB probe. (B) Western immunoblot probing for nuclear p65.
as §3
(§8) Myometrial tissue was collected at term from the upper margin of uterine incision at the time of lower segment caesarean section either prior to the onset of labour (L−) or […] (L+). L+ samples were collected by Dr Mark Johnson and Dr S Soorrana at Chelsea & Westminster Hospital. Myometrial tissue was dissected, rinsed in PBS, and digested in serum-free DMEM containing 15 mg/ml collagenase 1A (Sigma), 15 mg/ml collagenase X, and 50 mg/ml bovine serum albumin for 45 min at 37° C. The cell suspension was filtered through a cell strainer, centrifuged at 400 g for 5 min, and the pellet re-suspended and plated out in DMEM, 10% FCS (Helena BioScience), 1% L-glutamine, 1% penicillin-streptomycin. Cells were used between passage numbers 1-4.
as §5, §6

Experiment [3] deals with NF-κB. Nature of the experiment: Western immunoblot of NF-κB activation (p65, p50, IκB) in amnion cells. Type of experiment: cell-based, human. To be noted: L−. The method, then:
(§9) Western immunoblots of nuclear or cytosolic protein extracts from (A) myometrial cells, (B) L− amnion cells, and (C) L+amnion cells treated with 15dPGJ2 or vehicle for 2 h+/−IL-1, stimulation (15 min). Blots probed with antibodies against p65, p50 or IκBα.
as §4, §5
Protein samples (20-70 μg) were mixed with Laemmli sample buffer (1:1) containing β-mercaptoethanol (5%), and boiled for 5 min. Proteins were then separated by SDS-PAGE (12-14% gels) and transferred onto PVDF membrane (Amersham Pharmacia Biotech). The membranes were blocked overnight in 5% non-fat milk prepared in PBS-T buffer, at 4° C. The blots were incubated with the primary antibody in 1% non-fat milk in PBS-T buffer for 1 h, and washed three times (10 min each) in PBS-T with vigorous shaking. The blots were then incubated with HRP-conjugated secondary antibody (diluted 1:2000 in 1% non-fat milk in PBS-T buffer) for 1 h and washed three times (10 min each) in PBS-T. Signal detection was achieved using enhanced chemi-luminescence (ECL plus system, Amersham Pharmacia Biotech) according to manufacturer's instructions. […]
In general terms: In western blotting, separated proteins are transferred to a membrane and probed.

Experiment [4] deals with NF-κB. Nature of the experiment: Western immunoblot of NF-κB activation (p65, p50, IκB) in myometrial cells. Type of experiment: cell-based, human. On the set-up: Accumulation of phosphorylated IκBα: dose or concentration left out as unconfirmed. The method, then: as §9
Western immunoblot of nuclear or cytosolic protein extracts from myometrial cells treated with PGA1 or vehicle for 2 h followed by IL-1β stimulation (15 min). Blots probed with antibodies against p65 or IκBa.
as §7
Western immunoblots of cytosolic extracts from myometrial cells (A) treated with 15dPGJ2 for 2 h+/−IL1b for 15 min; probed for IKK, and (B) treated with […] 15dPGJ2, […] MG132 or vehicle for 2 h, +/−IL-1β for 15 min; probed for IκBα.
as §8, §5
Protein samples (20-70 μg) were mixed with Laemmli sample buffer (1:1) containing β-mercaptoethanol (5%), and boiled for 5 min. Proteins were then separated by SDS-PAGE (12-14% gels) and transferred onto PVDF membrane (Amersham Pharmacia Biotech). The membranes were blocked overnight in 5% non-fat milk prepared in PBS-T buffer, at 4° C. The blots were incubated with the primary antibody in 1% non-fat milk in PBS-T buffer for 1 h, and washed three times (10 min each) in PBS-T with vigorous shaking. The blots were then incubated with HRP-conjugated secondary antibody (diluted 1:2000 in 1% non-fat milk in PBS-T buffer) for 1 h and washed three times (10 min each) in PBS-T. Signal detection was achieved using enhanced chemi-luminescence (ECL plus system, Amersham Pharmacia Biotech) according to manufacturer's instructions.
30-50 μg protein extracts were subjected to SDS-PAGE and Western immuno-blotting. Secondary antibodies were IgG-HRP and ECL Plus detection kit (Amersham Pharmacia Biotech, Amersham Place, Little Chalfont, Bucks, HP7 9NA) was used for visualisation.

For experiment [5], the system named is NF-κB. Nature of the experiment: NF-κB-dependent luciferase reporter (κB.BG.Luc) in myometrial cells. Type of experiment: cell-based, human. To be noted: treated 2 h, IL-1β 1 ng/ml 6 h. The method, then:
Myometrial cells were transiently transfected with the NFκB-dependent reporter construct κB.BG.Luc, treated with 15dPGJ2 or vehicle for 2 h, +/−IL-1β(1 ng/ml) for 6 h. […] Values are normalised for b-gal reporter activity. (NS=nonstimulated).
Myometrial cells were transfected with […] κB.BG.Luc reporter and 200 ng PPAR-γ expression vector and treated with 15d-PGJ2 for 2 h followed by IL-1β (1 ng/ml) for 6 h. Values are normalised for β-galactosidase reporter activity. (NS=nonstimulated).
as §8
pGL3.6 κB.BG.luc: a NF-κB-dependent reporter construct with 6 copies of the NF-κB binding site.
Cells were co-transfected with the renilla vector pRL-CMV or a β-galactosidase vector pCH110 as internal controls for transfection efficiencies.
(A reporter such as luciferase makes a cellular process visible.)

A further experiment concerns PPARα. The conditions noted are these: GAL4 chimera transfection system; cited from earlier work.

With `CCCCC(C)(C)[C@H](O)/C=C/[C@H]1[C@H](O)CC(=O)[C@@H]1C/C=C\CCCC(=O)O` [16,16-Dimethyl-PGE2], the “Induction of NF-κB DNA binding by the compound alone” value with NF-κB [1] (L− amnion cells) is recorded as “does not induce”. The “IL-1β-induced NF-κB DNA binding” value in the experiment with NF-κB [1] (L− and L+ amnion cells, treated 2 h, IL-1β stimulation 15 min) is reported as “did not inhibit”; in the experiment on NF-κB [2] (treated 2 h), “did not inhibit”. Further, the “Synergy with IL-1β or TNFα on NF-κB activity” value in the experiment with NF-κB [2] was “nor did it synergise”. Moreover, the “TNFα- and IL-1β-induced NFκB activation” value in the experiment with NF-κB [2] (treated 2 h, TNFα or IL-1b 15 min) was “does not inhibit”. Moreover, the entries for the “Induction of NF-κB DNA binding / stimulation of NF-κB activity by the compound alone” value in the experiment on NF-κB [2] (listed as 16,16-dimethyl-PGE2) and in the experiment with NF-κB [2] (listed as PGE2) were “neither did it stimulate” and “does not induce”, respectively. The “IL-1β-induced p65 nuclear translocation” value with NF-κB [3] and in the experiment with NF-κB [4] was “did not inhibit” each time.
With `CN(CCOc1ccc(C[C@H](Nc2ccccc2C(=O)c2ccccc2)C(=O)O)cc1)c1ccccn1` [GW1929, reference compound], in the experiment with NF-κB [2] (treated 2 h), the “IL-1β-induced NF-κB DNA binding” value is listed as “failed to inhibit”. Besides, the “IL-1-induced NF-κB transcriptional activity” value in the experiment with NF-κB [5] was “not”.
For the compound `O=C(Nc1ccccc1)c1cc([N+](=O)[O-])ccc1Cl` [GW-9662], the “Alleviation of 15d-PGJ2 inhibition of NF-κB DNA binding” value in the experiment with NF-κB [1] (amnion cells treated with 15d-PGJ2 in the presence of GW-9662) is on record as “failed to alleviate”.
`CC(C)C[C@@H](C=O)NC(=O)[C@H](CC(C)C)NC(=O)[C@H](CC(C)C)NC(=O)OCc1ccccc1` [MG132, reference compound] (Cbz-Leu-Leu-Leu-aldehyde): the “IL-1β-induced IκBα degradation” value with NF-κB [4] is recorded as “prevented”. Further, in the experiment with NF-κB [4] (2 h, IL-1β 15 min), the “Accumulation of phosphorylated IκBα” value is listed as “resulted in the accumulation”.
Consider `Cc1cccc(Nc2cc(Cl)nc(SCC(=O)O)n2)c1C` [WY-14643, reference compound], for which the “NF-κB DNA binding” value with NF-κB [2] (10-100 μM concentrations) is listed as “had no effect”. Besides, the “IL-1-induced NF-κB transcriptional activity” value in the experiment on NF-κB [5] is reported as “not”. In the experiment with PPARα, the “Doses that can transactivate PPARα” value was 5 to 25 µM.

(Values after US20070270392A1, “Use of a Cyclopentenone Prostaglandin for Delaying the Onset and/or Preventing the Continuation of Labour” (Imperial College Innovations Limited, priority 2003, published 2007).)
